Laboratory results: patent US11142524B2, “Substituted-3H-imidazo[4,5-c]pyridine and 1H-pyrrolo[2,3-c]pyridine series of novel Ectonucleotide Pyrophosphatase/Phosphodiesterase-1 (ENPP1) and stimulator for interferon genes (STING) modulators as cancer immunotherapeutics” (Stingray Therapeutics, Inc., priority 2018, dated 2021)
Structures can show the parent of a compound that is named as a salt. Where two headings read alike, the source gives them in different places.

What was measured:
ENPP1 protein [1] = target: T1, ENPP1 protein (Homo sapiens (Human), UniProt P22413); experiment: ENPP1 Inhibition Assay (thymidine 5′-monophosphate p-nitrophenol ester substrate); format: biochemical
Method: Assay Buffer: 1 mM CaCl2, 0.2 mM ZnCl2, 50 mM Tris, pH 9.0. Substrate: 8 mM Thymidine 5′-monophosphate p-nitrophenol ester sodium salt (Sigma Cat #T4510). Enzyme: 5 ng/L Recombinant Human ENPP-1 Protein (R&D Cat #6136-EN-010) in DMSO in 96-well clear assay plates
(§1) An eight point serial dilution of drugs was prepared in 10× in assay buffer with the final assay concentrations starting at 10 μM, 3 μM, 1 μM, 0.3 μM . . . 0 μM. A dilution of DMSO was included as a control. The assay plate was set up as follows with each well in duplicate: 81 μL assay buffer+10 μL ENPP1 inhibitor or DMSO+5 μL Substrate+4 μL Enzyme. Both the enzyme and substrate were added to opposite sides of the well to ensure that there was no interaction until all wells had both components. The plate was then centrifuged gently for 10 seconds, followed by an incubation at 37° C. for 45 minutes. The reaction was quantified by measuring absorbance at 405 nm using the Envision.
IC50 values are determined using GraphPad Prism 5 software. The data were entered as an X-Y plot into the software as percent inhibition for each concentration of the drug. The concentration values of the drug were log transformed and the nonlinear regression was carried out using the “sigmoidal dose-response (variable slope)” option within the GraphPad software to model the data and calculate IC50 values. The IC50 values reported are the concentration of drug at which 50% inhibition was reached.

Saos-2 Cells = experiment: ENPP1 Mineralization Assay; format: cell-based
Method: Saos-2 Cells (ATCC CAT #HTB-85). Culture Medium. 24-well Tissue Culture Plate. Ascorbic Acid, 5 mg/mL (100×). β-Glycerophosphate, 1M (100×). Phosphate Buffered Saline. Alizarin Red, 40 mM pH 4.2. 70% Ethanol. Dye Extraction Reagent, 10% Methanol+10% Acetic Acid
Saos-2 cells were plated at a density of 1.5×10^6 cells/well and allowed to grow to 100% confluency over the following 1-2 days. Once completely confluent, the media was replaced with fresh media supplemented with 1× ascorbic acid, 1× β-glycerophosphate, and varying concentrations of ENPP1 inhibitor (if applicable). The addition of the mineralization components was considered Day 1. On Day 3, the media was gently aspirated with no wash followed by the addition of fresh media, mineralization components, and ENPP1 inhibitor (if applicable). On day 5, the media was gently aspirated and the cells were washed twice with PBS. The cells were then fixed with ice cold 70% ethanol for 1 hour at 4° C. Cells were washed once with PBS and stained with Alizarin Red for 30 minutes at room temperature with gentle rotation. Stained cells were washed three times with water for 10 minutes at room temperature with gentle rotation. After imaging cells, dye extraction reagent was added to each well and incubated for 30 minutes at room temperature. Alizarin red was quantified by measuring absorbance at a wavelength of 405 nm using the Envision.
FIG. 9 depicts a picture of results of a similar SAOS-2 mineralization assay. SAOS-2 cell were cultured in the presence and absence of ENPP1 inhibitor (compound 78, 107-02 or 108) and exposed to mineralization components for 3 days.

[2] = target: T2, Recombinant Human ENPP-1 Protein (purified in-house) (Homo sapiens (Human), UniProt P22413); experiment: ENPP1 Assay (TMP), Example 2; format: biochemical
Method: Enzyme: 1 ng/μL Recombinant Human ENPP-1 Protein (purified in-house)—Assay Conc.: 5 ng/well of DMSO in 96-well clear assay plates.
as §1, with “A ten” for “An eight”, “75” for “81”, “DMSO Dilutions+10” for “DMSO+5”, “Substrate+5” for “Substrate+4”, “Enzyme (5 ng).” for “Enzyme.”, “Envision Plate Reader.” for “Envision.”

[3] = target: T2, Recombinant Human ENPP-1 Protein (purified in-house); experiment: ENPP1 Assay (ATP), Example 2; format: biochemical
Method: Assay Buffer: 1 mM CaCl2, 0.2 mM ZnCl2, 50 mM Tris, pH 9.0. Substrate: 100 μM Adenosine 5′-triphosphate disodium salt hydrate (Promega: V703A)—Assay Conc.: 10 μM. Enzyme: 1 ng/μL Recombinant Human ENPP-1 Protein (purified in-house)—Assay Conc.: 5 ng/well of DMSO in 96-well white assay plates. Cell Titer Glo (Promega, cat #G7572).
A ten point serial dilution of drugs was prepared in 10× in assay buffer with the final assay concentrations starting at 10 μM, 3 μM, 1 μM, 0.3 μM . . . 0 μM. A dilution of DMSO was included as a control. The assay plate was set up as follows with each well in duplicate: 75 μL assay buffer+10 μL ENPP1 inhibitor or DMSO Dilutions+10 μL Substrate+5 μL Enzyme (5 ng). Both the enzyme and substrate were added to opposite sides of the well to ensure that there was no interaction until all wells had both components. The plate was then centrifuged gently for 10 seconds, followed by incubation at RT for 20 minutes. To detect levels of ATP, Cell Titer Glo was added 1:1 to each well and incubated for 10 minutes. The reaction was quantified by measuring luminescence using the Envision Plate Reader.

ENPP1 protein [4] = target: T1, ENPP1 protein; experiment: ENPP1 Thermal Shift Assay (Example 1); format: binding
Method: Assay Buffer (1 mM CaCl2, 0.2 mM ZnCl2, 50 mM Tris, pH 9.0) 5000×SYPRO Orange (ThermoFisher cat #S6651) 384-well PCR Plates
Each drug was prepared as a 10× solution in the assay buffer and SYPRO Orange was diluted to 10× concentration in water. Wells were set up in duplicate in a 384-well PCR plate as follows: 14 μL assay buffer, 2 μL ENPP1 Inhibitor or DMSO, 2 μL (0.5 μg) ENPP1 protein. Each well was mixed and incubated on ice for 5 minutes. Post incubation, 2 μL of SYPRO Orange was mixed into each well and followed by a gentle centrifugation. The protein melt reaction was run using ViiA7 software with temperatures beginning at 25° C. and increasing by 0.05° C./s to the maximum temperature of 99° C.
In a 384-well plate, 1.0 μg of ENPP1 protein incubated with 100 μM of the corresponding drug for 5 minutes. Each well exposed to increasing temperatures to determine an unfolding temperature of the protein.

[5] = Table 5, TMP substrate, read-out: ENPP1 (IC50 μM) TMP
[6] = FIG. 5B, ATP substrate, read-out: IC50
[7] = FIG. 5A, TMP substrate, read-out: IC50
[8] = Table 5, ATP substrate, read-out: ENPP1 (IC50 μM) ATP

T2 sequence (P22413 whole entry, looked up): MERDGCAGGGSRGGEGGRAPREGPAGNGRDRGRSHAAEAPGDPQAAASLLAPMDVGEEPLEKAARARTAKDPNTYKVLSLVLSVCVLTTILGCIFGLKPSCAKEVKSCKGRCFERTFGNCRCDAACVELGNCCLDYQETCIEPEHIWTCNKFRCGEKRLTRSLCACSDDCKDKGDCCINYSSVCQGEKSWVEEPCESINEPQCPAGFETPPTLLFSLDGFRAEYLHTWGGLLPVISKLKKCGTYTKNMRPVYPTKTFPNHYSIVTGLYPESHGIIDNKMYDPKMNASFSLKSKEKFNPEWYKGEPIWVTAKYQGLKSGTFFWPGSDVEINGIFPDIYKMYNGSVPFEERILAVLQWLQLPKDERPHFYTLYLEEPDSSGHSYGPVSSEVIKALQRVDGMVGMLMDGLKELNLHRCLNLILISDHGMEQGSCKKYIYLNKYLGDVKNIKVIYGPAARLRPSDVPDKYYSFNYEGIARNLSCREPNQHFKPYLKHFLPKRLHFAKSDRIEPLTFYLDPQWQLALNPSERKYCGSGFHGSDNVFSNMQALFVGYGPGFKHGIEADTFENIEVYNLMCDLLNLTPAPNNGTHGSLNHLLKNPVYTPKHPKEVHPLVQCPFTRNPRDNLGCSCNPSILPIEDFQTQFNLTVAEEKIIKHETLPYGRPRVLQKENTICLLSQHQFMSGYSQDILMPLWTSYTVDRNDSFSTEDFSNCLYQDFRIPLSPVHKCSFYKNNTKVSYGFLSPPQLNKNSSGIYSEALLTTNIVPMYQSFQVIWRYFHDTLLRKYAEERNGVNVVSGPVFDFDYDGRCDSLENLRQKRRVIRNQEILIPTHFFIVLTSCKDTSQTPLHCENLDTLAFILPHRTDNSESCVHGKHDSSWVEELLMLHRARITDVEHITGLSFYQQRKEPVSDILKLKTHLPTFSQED
T1 sequence (P22413 whole entry, looked up, change not shown): as the sequence (P22413 whole entry, looked up) above

Row | IC50 [2, 5] [µM] | SMILES | IC50 [3, 8] [µM] | also measured
1 | > 50 | COc1nc(NC(=O)CSc2nc3c(C)c(C#N)ncc3[nH]2)ccc1O [Compound 96, 2-((6-cyano-7-methyl-3H-imidazo[4,5-c]pyridin-2-yl)thio)-N-(5-hydroxy-6-methoxypyridin-2-yl)acetamide] |  | 
2 | > 50 | COc1ccc(NC(=O)CSc2nc3c(C)c(C#N)ncc3[nH]2)cc1S(C)(=O)=O [Compound 103, 2-((6-cyano-7-methyl-3H-imidazo[4,5-c]pyridin-2-yl)thio)-N-(4-methoxy-3-(methylsulfonyl)phenyl)acetamide] |  | 
3 | 2.85 | Cc1c(C#N)ncc2[nH]c(SCC(=O)Nc3ccc(F)c(S(N)(=O)=O)c3)nc12 [Compound 104, 2-((6-cyano-7-methyl-3H-imidazo[4,5-c]pyridin-2-yl)thio)-N-(4-fluoro-3-sulfamoylphenyl)acetamide] |  | 
4 | 3.61 | COc1ccc(NC(=O)CSc2nc3c(C)c(C#N)ncc3[nH]2)cc1OCCO [Compound 109, 2-((6-cyano-7-methyl-3H-imidazo[4,5-c]pyridin-2-yl)thio)-N-(3-(2-hydroxyethoxy)-4-methoxyphenyl)acetamide] | 3.26 | 
5 | > 50 | Cc1c(C#N)ncc2[nH]c(SCC(=O)Nc3ccc(F)c(OCCO)c3)nc12 [Compound 110, 2-((6-cyano-7-methyl-3H-imidazo[4,5-c]pyridin-2-yl)thio)-N-(4-fluoro-3-(2-hydroxyethoxy)phenyl)acetamide] |  | 
6 | 22.3 | COc1ccc(NC(=O)CSc2nc3c(C)c(C#N)ncc3[nH]2)cc1OCC1CCN(C)CC1 [Compound 111, 2-((6-cyano-7-methyl-3H-imidazo[4,5-c]pyridin-2-yl)thio)-N-(4-methoxy-3-((1-methylpiperidin-4-yl)methoxy)phenyl)acetamide hydrochloride] |  | 
7 | 22.2 | COc1ccc(NC(=O)CSc2nc3c(C)c(C#N)ncc3[nH]2)cc1O[C@H]1CC[C@H](N)CC1 [Compound 113, N-(3-(((1r,4r)-4-aminocyclohexyl)oxy)-4-methoxyphenyl)-2-((6-cyano-7-methyl-3H-imidazo[4,5-c]pyridin-2-yl)thio)acetamide Hydrochloride] |  | 
8 | 1.61 | COc1ccc(NC(=O)c2cnc(CSc3nc4c(C)c(C#N)ncc4[nH]3)s2)cc1O [Compound 115, sodium 5-(2-(((6-cyano-7-methyl-3H-imidazo[4,5-c]pyridin-2-yl)thio)methyl)thiazole-5-carboxamido)-2-methoxyphenolate] | 0.196 | IC50 [3, 6]: 0.191 µM; IC50 [2, 7]: 1.61 µM

The remaining lines, values behind:

Row | SMILES | IC50 [2, 5] [µM] | IC50 [3, 8] [µM] | also measured
9 | O=C(CSc1nc2cc(Cl)ncc2[nH]1)Nc1ccc2c(c1)OCO2 [Compound 7, N-(benzo[d][1,3]dioxol-5-yl)-2-((6-chloro-1H-imidazo[4,5-c]pyridin-2-yl)thio)acetamide] |  |  | IC50 (ENPP1 protein [1]; Tables 3 and 4, read-out: ENPP1 inhibition (IC50)): > 50000 nM
10 | COc1ccc(NC(=O)CSc2nc3cc(C#N)ncc3[nH]2)cc1OC [Compound 68, 2-((6-Cyano-3H-imidazo[4,5-c]pyridin-2-yl)thio)-N-(3,4-dimethoxyphenyl)acetamide] |  |  | inhibiting ENPP1 ability to produce mineralized nodules (Saos-2 Cells; FIG. 4, normalized against DMSO control): effective; inhibiting the activity of ENPP1 (ENPP1 protein [1]; FIG. 1): effective; IC50 (ENPP1 protein [1]; Table 1, FIG. 1, read-out: IC50): 114 nM
11 | COc1ccc(NC(=O)CSc2nc3c(C)c(C#N)ncc3[nH]2)cc1OP(=O)(O)O [Compound 107, Sodium 5-(2-((6-cyano-7-methyl-3H-imidazo[4,5-c]pyridin-2-yl)thio)acetamido)-2-methoxyphenyl phosphate] |  |  | IC50 [3, 6]: 0.116 µM; IC50 ([3]; Table 5, ATP substrate, phosphate, read-out: ENPP1 (IC50 μM) ATP): 0.116 µM; IC50 [2, 7]: 0.232 µM; IC50 ([2]; Table 5, TMP substrate, phosphate, read-out: ENPP1 (IC50 μM) TMP): 0.231 µM
12 | COc1cc(NC(=O)CSc2nc3c(C)c(C#N)ncc3[nH]2)ccc1OP(=O)([O-])[O-].[Na+].[Na+] [Compound 108, sodium 4-(2-((6-Cyano-7-methyl-3H-imidazo[4,5-c]pyridin-2-yl)thio)acetamido)-2-methoxyphenyl phosphate] | 2.04 | 0.339 | Tm (° C.) (ENPP1 protein [4]; Table 2, FIG. 7, 100 μM drug, 1.0 μg ENPP1, NT 60.05): 63.60 °C; ΔTm at 100 µM (ENPP1 protein [4]; read-out: ΔTm (° C.)): 3.54 °C; total mineralization (Saos-2 Cells; FIG. 9, mineralization components for 3 days): significant decrease; IC50 [3, 6]: 0.339 µM; IC50 [2, 7]: 2.04 µM
13 | COc1ccc(NC(=O)CSc2nc3c(C)c(C#N)ncc3[nH]2)cc1N1CCC(O)CC1 [Compound 112, 2-((6-cyano-7-methyl-3H-imidazo[4,5-c]pyridin-2-yl)thio)-N-(3-(4-hydroxypiperidin-1-yl)-4-methoxyphenyl)acetamide hydrochloride] | > 50 | > 50 | 
14 | COc1ccc(NC(=O)CSc2nc3c(C)c(C#N)ncc3[nH]2)cc1N[C@H]1CC[C@H](N)CC1 [Compound 114, N-(3-(((1r,4r)-4-aminocyclohexyl)amino)-4-methoxyphenyl)-2-((6-cyano-7-methyl-3H-imidazo[4,5-c]pyridin-2-yl)thio)acetamide hydrogen chloride] | > 50 | > 50 | 
